Measured values taken from paper PMC6956158, “In Vitro and In Vivo Assessment of Metabolic Drug Interaction Potential of Dutasteride with Ketoconazole” (Pharmaceutics, 2019).

How the values were obtained:
DUT metabolism in HLM = assay: Inhibition of DUT metabolism by KET in HLM; assay type: in vitro ADME, human
Procedure: (§1) To investigate the metabolic interaction potential between DUT and KET, the disappearance of DUT (5 μM) in RLM and HLM was determined under the absence and presence of KET at various concentrations ranging from 1 to 5000 nM. A microsomal reaction mixture was prepared as follows (total volume: 0.2 mL): 1 mM NADPH, 10 mM MgCl2, substrate (DUT), and inhibitor (KET), RLM or HLM (1 mg/mL), and 50 mM phosphate buffer. […] The unbound fractions of DUT in rat plasma, RLM, human plasma, and HLM were measured using a rapid equilibrium dialysis (RED) device (Thermo Fisher Scientific, Inc., Waltham, MA, USA) as described in a previous study. […] The fraction unbound was calculated as the ratio of the drug concentrations in the “buffer” chamber to those in the “sample” chamber. The blood-to-plasma concentration ratio (RB) of DUT was determined as described previously. […] The concentrations of DUT in the plasma sample were determined by the validated HPLC analysis.
(§2) The half maximal inhibitory concentration (IC50) of KET for the inhibition of the DUT metabolism was determined by the nonlinear regression analysis (GraphPad Prism ver. 5.01; GraphPad Software Inc., San Diego, CA, USA) based on the following Hill equation: y = Min + Max−Min/1 + (x/IC50)^-P where Max and Min are the initial and final y value, respectively, and the exponent P represents the Hill coefficient. […]

[1] = parameters: method as in ref 13 (supplement); conditions: ref 13 (supplement); cited from earlier work
DUT metabolism in RLM = assay: Inhibition of DUT metabolism by KET in RLM; assay type: in vitro ADME, rat; conditions: RLM 1 mg/mL, DUT 5 μM, 90 min
Procedure: as §1, §2

[2] = parameters: method as in ref 12 (supplement); conditions: ref 12 (supplement); cited from earlier work
[3] = Stability in rat plasma (QC samples); assay type: in vitro ADME; conditions: n = 5; for Stability (percent drug remaining), Autosampler: 10 °C for 24 h in the autosampler; for Stability (percent drug remaining), Bench-Top: room temperature for 3 h; for Stability (percent drug remaining), Freeze-Thaw: three freezing and thawing cycles; for Stability (percent drug remaining), Long-Term: −20 °C for 30 days
Procedure: The bioanalytical method proposed herein for the simultaneous determination of DUT and H-DUT was fully validated on the basis of the US FDA guideline. The selectivity of the method was evaluated by comparing chromatograms of the analytes (DUT, H-DUT, and internal standard) in blank rat plasma, blank rat plasma spiked with the analytes, and rat plasma sample obtained from the in vivo rat pharmacokinetic study. Further, the existence of potential interferences at the acquisition windows of the analytes was checked. The linearity of the method was evaluated by adding increasing amounts of DUT and H-DUT to the blank plasma. To construct calibration curves (n = 5), the peak area ratios of DUT or H-DUT to the internal standard (y-axis) were plotted against the nominal concentration ratios of DUT or H-DUT (10–1000 ng/mL) to the internal standard (400 ng/mL) (x-axis), and then, linear regression analysis was performed. The sensitivity was assessed by estimating the LLOQ (signal-to-noise [S/N] ratio > 5). The peaks of the analytes at the LLOQ should be discrete, identifiable, and reproducible with acceptable precision (<20%) and accuracy (within 80–120%). The extraction recovery, matrix effect, dilution integrity, and stability (under bench-top, freeze–thaw, post-preparative, and long-term conditions) in addition to the intra-assay (five different samples) and inter-assay (five different runs) precision and accuracy for each analyte were determined at the LLOQ and three different QC levels as described in the US FDA guidelines and in previous studies.

[4] = In vivo pharmacokinetic study in rats, intravenous DUT without or with intravenous KET; parameters: species or system rat; conditions: male, Sprague-Dawley, rat, plasma, iv, 2.5 mg/kg, n = 4
Text: (§3) The animal experiment protocols used in the present study were approved by the Pusan National University-Institutional Animal Care and Use Committee for scientific care and ethical procedures (Busan, Korea; approval date: 01/05/2018; approval number: PNU-2018-1848). Male Sprague–Dawley rats (8-week-old; approximately 250 g) were purchased from DBL Co., Ltd. (Incheon, Korea). The rats were acclimatized in a clean room of the Laboratory Animal Center of Pusan National University (Busan, Korea) for 1 week. Then, they were fasted for 12 h prior to the pharmacokinetic experiment and then anesthetized by intramuscular injection of Zoletil at a dose of 20 mg/kg. The femoral vein and artery of the rats were cannulated with a polyethylene tube (BD Medical; Franklin Lakes, NJ, USA). At approximately 4–6 h after the surgery for cannulation, an intravenous dose of DUT (2.5 mg/kg) simultaneously with or without intravenous KET (20 mg/kg) or an oral dose of DUT (5 mg/kg) simultaneously with or without intravenous KET (20 mg/kg) was administered to the rats. Drugs were dissolved in a vehicle consisting of dimethyl sulfoxide, ethanol, and polyethylene glycol 400 at a ratio of 10:5:85 (v/v/v). Blood (approximately 200 μL) was collected in heparin pre-treated microcentrifuge tubes via the femoral artery at 0, 1, 5, 15, 30, 60, 120, 180, 240, 360, 480, and 1200 min after the intravenous dose and at 0, 5, 15, 30, 60, 120, 150, 180, 240, 360, 480, and 1200 min after the oral dose. Following centrifugation of the blood samples at 3000× g at 4 °C for 10 min [19], 100 μL aliquots of plasma were stored at −80 °C.
(§4) The half maximal inhibitory concentration (IC50) of KET for the inhibition of the DUT metabolism was determined by the nonlinear regression analysis (GraphPad Prism ver. 5.01; GraphPad Software Inc., San Diego, CA, USA) based on the following Hill equation: y = Min + Max−Min/1 + (x/IC50)^-P where Max and Min are the initial and final y value, respectively, and the exponent P represents the Hill coefficient. Peak plasma concentration (Cmax) and time to reach Cmax (Tmax) were read directly from the observed data. Non-compartmental analysis was conducted to estimate pharmacokinetic parameters such as total area under plasma concentration versus time curve from time zero to time of last sampling (AUClast), total area under plasma concentration versus time curve from time zero to infinity (AUCinf), total plasma clearance (CL), volume of distribution at steady state (Vss), and terminal half-life (t1/2) using the NCA200 and 201 models of WinNonlin ver. 3.1 (Certara USA Inc., Princeton, NJ, USA).

[5] = In vivo pharmacokinetic study in rats, oral DUT without or with KET; parameters: species or system rat; conditions: male, Sprague-Dawley, rat, plasma, po, 5 mg/kg, n = 4
Text: as §3, with “([…])” for “(20 mg/kg) or an oral dose of DUT (5 mg/kg) simultaneously with or without intravenous KET (20 mg/kg)”
as §4

[6] = intravenous DUT 2.5 mg/kg with intravenous KET 20 mg/kg
[7] = intravenous DUT 2.5 mg/kg, DUT alone
[8] = oral DUT 5 mg/kg with oral KET (20 mg/kg)

SMILES: CC(=O)N1CCN(c2ccc(OCC3COC(Cn4ccnc4)(c4ccc(Cl)cc4Cl)O3)cc2)CC1 (centres unmarked) [KET, ketoconazole]
- IC50 (DUT metabolism in HLM; HLM 1 mg/mL, DUT 5 μM, 90 min): 54.9 ± 15.6 nM
- Ki (DUT metabolism in HLM; HLM, fu,mic,KET × IC50 / (S/Km + 1), competitive inhibition assumed, read-out: Ki (unbound inhibition constant)): 48.5 nM
- Imax,u, maximum unbound plasma concentration [1]: 0.0913 µM
- IC50 (DUT metabolism in RLM): 77.3 ± 11.1 nM
- fu,mic,KET, unbound fraction in HLM [2]: 0.97

SMILES: C[C@]12C=CC(=O)N[C@@H]1[C@H](O)C[C@@H]1[C@@H]2CC[C@]2(C)[C@@H](C(=O)Nc3cc(C(F)(F)F)ccc3C(F)(F)F)CC[C@@H]12 [H-DUT, 6β-hydroxydutasteride]
- Stability (percent drug remaining), Autosampler ([3]; HQC 750 ng/mL): 104 ± 1%
- Stability (percent drug remaining), Bench-Top ([3]; HQC 750 ng/mL): 101 ± 0%
- Stability (percent drug remaining), Freeze-Thaw ([3]; HQC 750 ng/mL): 101 ± 1%
- Stability (percent drug remaining), Long-Term ([3]; HQC 750 ng/mL): 106 ± 1%
- Stability (percent drug remaining), Autosampler ([3]; LLOQ 10 ng/mL): 103 ± 4%
- Stability (percent drug remaining), Bench-Top ([3]; LLOQ 10 ng/mL): 102 ± 4%
- Stability (percent drug remaining), Freeze-Thaw ([3]; LLOQ 10 ng/mL): 101 ± 7%
- Stability (percent drug remaining), Long-Term ([3]; LLOQ 10 ng/mL): 96.1 ± 4.7%
- Stability (percent drug remaining), Autosampler ([3]; LQC 30 ng/mL): 97.1 ± 0.8%
- Stability (percent drug remaining), Bench-Top ([3]; LQC 30 ng/mL): 104 ± 9%
- Stability (percent drug remaining), Freeze-Thaw ([3]; LQC 30 ng/mL): 99.0 ± 2.3%
- Stability (percent drug remaining), Long-Term ([3]; LQC 30 ng/mL): 95.1 ± 3.7%
- Stability (percent drug remaining), Autosampler ([3]; MQC 150 ng/mL): 103 ± 4%
- Stability (percent drug remaining), Bench-Top ([3]; MQC 150 ng/mL): 99.0 ± 1.4%
- Stability (percent drug remaining), Freeze-Thaw ([3]; MQC 150 ng/mL): 103 ± 3%
- Stability (percent drug remaining), Long-Term ([3]; MQC 150 ng/mL): 98.7 ± 1.5%
- AUC(0-t) [4, 6]: 1070 ng·h/mL
- Cmax [4, 6]: 116 ± 4 ng/mL
- AUC(0-t) [4, 7]: 2130 ng·h/mL
- Cmax [4, 7]: 141 ± 17 ng/mL
- AUC(0-t) [5, 8]: 630 ng·h/mL
- Cmax [5, 8]: 62.8 ± 12.3 ng/mL
- AUC(0-t) ([5]; oral DUT 5 mg/kg, DUT alone): 1590 ng·h/mL
- Cmax ([5]; oral DUT 5 mg/kg, DUT alone): 103 ± 20 ng/mL
